Experiments:
Format in all cases: cell-based
[1] = target: T1, Nuclear factor erythroid 2-related factor 2 (Mus musculus) (UniProt Q60795); assay: Activation of Nrf2 in mouse MIN6 cells assessed as upregulation of GST1-ARE-luciferase incubated for 8 hrs by luminometric assay relative to control
T1 sequence (whole entry): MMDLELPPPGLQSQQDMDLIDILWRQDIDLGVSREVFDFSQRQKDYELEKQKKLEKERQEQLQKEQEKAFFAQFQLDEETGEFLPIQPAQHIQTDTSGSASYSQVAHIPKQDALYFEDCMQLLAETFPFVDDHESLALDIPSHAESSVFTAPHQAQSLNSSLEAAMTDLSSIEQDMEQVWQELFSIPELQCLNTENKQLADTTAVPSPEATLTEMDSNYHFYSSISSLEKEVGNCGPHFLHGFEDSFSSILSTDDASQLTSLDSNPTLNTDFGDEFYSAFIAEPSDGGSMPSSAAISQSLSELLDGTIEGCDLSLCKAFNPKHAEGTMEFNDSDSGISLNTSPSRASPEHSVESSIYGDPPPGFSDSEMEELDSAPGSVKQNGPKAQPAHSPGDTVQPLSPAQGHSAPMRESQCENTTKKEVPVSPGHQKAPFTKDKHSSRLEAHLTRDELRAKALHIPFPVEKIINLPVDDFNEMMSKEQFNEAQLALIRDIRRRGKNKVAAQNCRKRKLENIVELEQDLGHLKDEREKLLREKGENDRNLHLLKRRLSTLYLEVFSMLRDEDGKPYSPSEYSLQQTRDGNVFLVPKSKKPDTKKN

[2] = target: T1, Nuclear factor erythroid 2-related factor 2 (Mus musculus); assay: Activation of Nrf2 in mouse MIN6 cells assessed as upregulation of human NQO1-ARE-luciferase incubated for 8 hrs by luminometric assay relative to control
[3] = target: T2, Keap1/Nrf2 (Homo sapiens) (UniProt Q16236+Q14145); assay: Inhibition of Nrf2-Keap1 (unknown origin) interaction co-expressed in HEK293T cells using D-luciferin as substrate assessed as decrease in luciferase signal intensity incubated for 24 hrs by bioluminescence-based IVIS imaging analysis; conditions: HEK-293T
[4] = target: T1, Nuclear factor erythroid 2-related factor 2 (Mus musculus); assay: Activation of Nrf2 in mouse MIN6 cells assessed as decrease in cytoplasmic Nrf2 fraction by Western blot analysis
[5] = target: T1, Nuclear factor erythroid 2-related factor 2 (Mus musculus); assay: Activation of Nrf2 in mouse MIN6 cells assessed as increase in nuclear Nrf2 translocation by Western blot analysis
[6] = target: T2, Keap1/Nrf2 (Homo sapiens); assay: Inhibition of Nrf2-Keap1 (unknown origin) interaction co-expressed in HEK293T cells using D-luciferin as substrate assessed as decrease in luciferase signal intensity at 0.5 to 10 uM by bioluminescence-based IVIS imaging analysis; conditions: HEK-293T, TDE = time-dependent effect

T2 sequence (Q14145 whole entry, looked up): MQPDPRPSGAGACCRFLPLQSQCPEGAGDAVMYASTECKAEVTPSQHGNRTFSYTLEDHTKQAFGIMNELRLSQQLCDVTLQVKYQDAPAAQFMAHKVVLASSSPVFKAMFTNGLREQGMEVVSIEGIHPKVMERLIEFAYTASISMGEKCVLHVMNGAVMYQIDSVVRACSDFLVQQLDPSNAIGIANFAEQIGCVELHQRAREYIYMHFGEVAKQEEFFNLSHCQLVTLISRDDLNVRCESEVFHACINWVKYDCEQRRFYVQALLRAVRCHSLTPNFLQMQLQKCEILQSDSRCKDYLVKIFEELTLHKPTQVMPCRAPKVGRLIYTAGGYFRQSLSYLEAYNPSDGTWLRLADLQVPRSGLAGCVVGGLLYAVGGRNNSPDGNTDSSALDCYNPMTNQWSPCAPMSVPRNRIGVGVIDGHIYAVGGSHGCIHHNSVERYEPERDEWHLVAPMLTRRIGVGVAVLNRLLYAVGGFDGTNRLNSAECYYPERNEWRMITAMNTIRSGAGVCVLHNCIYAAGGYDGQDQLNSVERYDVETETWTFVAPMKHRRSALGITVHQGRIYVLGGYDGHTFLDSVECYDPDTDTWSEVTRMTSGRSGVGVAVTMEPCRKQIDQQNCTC
T2 sequence (Q16236 whole entry, looked up): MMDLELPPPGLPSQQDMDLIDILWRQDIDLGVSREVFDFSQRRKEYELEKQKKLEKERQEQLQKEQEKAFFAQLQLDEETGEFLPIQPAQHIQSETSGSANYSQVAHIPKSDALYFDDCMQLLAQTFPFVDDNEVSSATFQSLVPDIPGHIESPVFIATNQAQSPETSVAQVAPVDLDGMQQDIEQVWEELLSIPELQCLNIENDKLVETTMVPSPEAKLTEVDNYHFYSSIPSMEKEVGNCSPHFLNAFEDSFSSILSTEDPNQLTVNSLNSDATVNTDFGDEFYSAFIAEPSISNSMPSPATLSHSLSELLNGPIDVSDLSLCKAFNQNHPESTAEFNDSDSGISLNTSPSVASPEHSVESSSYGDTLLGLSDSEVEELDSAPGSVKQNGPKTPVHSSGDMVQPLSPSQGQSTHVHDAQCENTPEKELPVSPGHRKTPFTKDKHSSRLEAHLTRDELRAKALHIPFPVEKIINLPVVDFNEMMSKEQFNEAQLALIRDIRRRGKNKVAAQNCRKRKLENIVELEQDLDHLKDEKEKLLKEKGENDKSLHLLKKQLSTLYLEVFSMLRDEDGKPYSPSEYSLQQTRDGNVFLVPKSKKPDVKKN

Activity [1]: Dose-dependent effect
fold change (FC) [1]: 2
Activity [2]: Dose-dependent effect
fold change (FC) [2]: 2
inhibition [3]: Dose-dependent effect
Activity [4]: Dose-dependent effect
Activity [5]: Dose-dependent effect
inhibition [6]: tde
Structure (SMILES): COc1cc(/C=C/c2ccc(O)cc2)cc(OC)c1

Reference: ChEMBL document CHEMBL3817774, “Pterostilbene-mediated Nrf2 activation: Mechanistic insights on Keap1:Nrf2 interface” (Bioorg Med Chem, 2016)
